{"source": "patent EP0318138A1", "about": "“Use of inorganic fluorides and nitrogen heterocyclics for enhancement of fluoride uptake in teeth” (SHISEIDO COMPANY LIMITED, priority 1987, dated 1989)", "key": {"[1]": {"assay": "Experiment 1: fluorine concentration in treated synthetic hydroxyapatite powder (microdiffusion analysis)", "conditions": "pH 4.5, 37°C 5 minutes, then calcifying solution 60 minutes", "experimental": "(§1) Sodium fluoride and the heterocyclic compounds or the fatty acid ester (for comparison) listed in Tables 1 to 3 were added to an distilled water in the amounts shown in Tables 1 to 3, and the pH of the solution was adjusted to 4.5 with dilute hydrochloride or sodium hydroxide to form several preparations. Synthetic hydroxyapatite powder was incubated in each of the preparations at 37°C for 5 minutes and in a calcifying solution at 37°C for 60 minutes, and then filtrated and dried. The fluorine concentration in the treated synthetic hydroxyapatite powder was determined by microdiffusion analysis, and the amount of dissolved calcium after incubating the treated powder in an acetate buffer at 37°C for 60 minutes was measured. The inhibition (%) of decalcification was then calculated by the following equation, to evaluate the acid resistance thereof. [drawing 3]"}, "[2]": {"assay": "Experiment 1: inhibition of decalcification (dissolved calcium from treated powder in acetate buffer)", "conditions": "acetate buffer 37°C 60 minutes", "experimental": "as §1"}, "[3]": {"assay": "Experiment 2: fluorine concentration in enamel of treated tooth by enamel biopsy", "design": "species or system bovine", "experimental": "(§2) A fluoride compound, and pyridoxine hydrochloride, 3-pyridylcarbinol or thiamine hydrochloride were added to distilled water, in amounts shown in table 4 to produce preparations. A bovine tooth (which had been ground to remove 200 µm of the surface and expose the enamel surface) was incubated in each preparation at 37°C for 5 minutes and in a calcifying solution at 37°C for 60 minutes, and then washed with tap water and dried. The fluorine concentration in the enamel of the fluoride-treated bovine tooth was determined by enamel biopsy. […] Considerable decalcification. x ... No inhibition of decalcification."}, "[4]": {"assay": "Experiment 2: decalcification in acidic gelatin gel observed by microradiography", "design": "species or system bovine", "conditions": "4W in acidic gelatin gel", "experimental": "as §2"}}}
{"smiles": "[F-].[Na+]", "note": "[Sodium fluoride]", "values": [{"measurement": "Fluorine concentration (ppm)", "setting": "[1]; Sodium fluoride 0.2 %, pyridoxine hydrochloride 0 %", "result": 4910, "unit": "ppm"}, {"measurement": "Fluorine concentration (ppm)", "setting": "[1]; Table 2, preparations in distilled water", "result": 4910, "unit": "ppm"}, {"measurement": "Fluorine concentration (ppm)", "setting": "[1]; Table 3, preparations in distilled water", "result": 4796, "unit": "ppm"}, {"measurement": "Inhibition of decalcification (%)", "setting": "[2]; Sodium fluoride 0.2 %, pyridoxine hydrochloride 0 %, pH 4.5", "result": 40.9, "unit": "%"}, {"measurement": "Inhibition of decalcification (%)", "setting": "[2]; Table 2, preparations pH 4.5", "result": 40.9, "unit": "%"}, {"measurement": "Inhibition of decalcification (%)", "setting": "[2]; Table 3, preparations pH 4.5", "result": 40.9, "unit": "%"}, {"measurement": "F conc. in enamel", "setting": "[3]; 1st Etch", "result": 498, "unit": "ppm"}, {"measurement": "F conc. in enamel", "setting": "[3]; 2nd etch", "result": 309, "unit": "ppm"}, {"measurement": "F conc. in enamel", "setting": "[3]; 3rd etch", "result": 222, "unit": "ppm"}, {"measurement": "F conc. in enamel", "setting": "[3]; 4th etch", "result": 178, "unit": "ppm"}, {"measurement": "F conc. in enamel", "setting": "[3]; 5th etch", "result": 139, "unit": "ppm"}, {"measurement": "Inhibition of decalcification", "setting": "[4]", "result": "○"}]}
